The results in this text go back to patent publication US20200384053A1, “Ophthalmic Compositions and Medical Uses Thereof in Treatment of Myopia” (SunDragon Bio-medical Technology Co., priority 2019, published 2020).

Structures are written as SMILES.

For the assay, the system named is Golden Syrian hamsters. In words: Monocular form deprivation (MFD) myopia animal model, axial length by A-scan ultrasonography. It is filed as in vivo. Particulars: after 21-day daily eye drop treatment. As for the experimental part: 0.125% atropine eye drop was prepared under sterile conditions by dilution of 1% atropine ophthalmic solution with artificial tears (commercially available from Alcon Laboratories, Inc., Fort Worth, Tex., USA). The Extract A and/or Extract C were mixed with 5 ml artificial tears (commercially available from Alcon Laboratories, Inc., Fort Worth, Tex., USA) to reach a final concentration of 150 ng/ml by an oscillator.
3-week old Golden Syrian hamsters, each weighing 80 to 90 grams, were used for experiments. All animals were kept in a 12-hour light/dark cycle. All procedures were approved by the Institutional Animal Care and Use Committee of China Medical University and were conducted in accordance with the guidelines of the Use of Animals in Ophthalmic and Vision Research. Hamsters were raised with right eyelid fusion for 21 days. MFD was induced in the right eyes of the animals, with their left eyes serving as a control. The animals were randomly assigned to […] receiving daily applications of artificial tears or the eye drops prepared in Example 8, respectively, to both eyes. The treatment lasted for 21 days. The axial lengths of both eyes in each animal were measured on the 21st day following the start of the treatment by A-scan ultrasonography (PacScan 300 Plus, NY, USA).

In the case of `CN1[C@@H]2CC[C@H]1C[C@@H](OC(=O)C(CO)c1ccccc1)C2` (some centres unmarked) [Atropine, atropine], the “axial lengths of the non-MFD (left) eyes” value (Control 0.36±0.05 mm, differences not statistically significant) is 0.33±0.03 mm. In addition, where the note is “extracts 150 ng/ml, atropine 0.125%, Control 0.436±0.06 mm, p<0.05 vs Control”, the “axial lengths of the MFD (right) eyes” value came to 0.358±0.01 mm.
